Reference: patent US9790188B2, “Benzimidazole derivatives and uses thereof” (Whitehead Institute for Biomedical Research, priority 2013, dated 2017)
Entries after “also recorded” stand apart in the source; their conditions may differ.

How the values were obtained:
WT yeast [1] = experiment: Growth inhibition of wild-type yeast (dose-response); type: cell-based; settings: at concentrations higher than those that rescue α-syn toxicity
Protocol: Source plates were assembled in 96 well plates using multichannel pipettes to dilute rows in 1.6-fold serial dilutions of CSMGal. […] For α-syn, the final starting OD600 was 0.02. Drug concentration ranges varied depending on efficacy, growth inhibition, and solubility in media. A Tecan EvoFreedom liquid handling robot was then used to transfer culture from 96 to 384 well format with each well being represented four times. Final well volume was 35 μL. Plates were then incubated in humidified containers at 30° C. for either 24 or 40 hours. Plates were then read with a Tecan Saphire plate reader at OD600.
Raw OD600 values were transformed to “Relative Growth” in WT cells or “% Maximum Rescue” in α-syn experiments. In WT cells, the well background was subtracted and all values were then normalized to 100% for the untreated condition. In α-syn rescue experiments, the well background was subtracted and the maximum rescue in the particular experiment was normalized to 100%.

WT yeast [2] = experiment: Viable cells recovered after prolonged treatment at growth inhibitory concentrations
aSyn^A53T iPS neurons = experiment: Nitrosative stress (NO sensor FL2) in patient iPS neurons; settings: human cortical neurons from iPSCs of a patient carrying α-syn mutations
Excerpt: Nitrosative stress was monitored by protein nitration levels using the 3-NT antibody. […] All data represented as mean±SEM (*: p<0.05; **: p<0.01, two tail t-test compared to control condition).

reactive oxygen species = experiment: ROS detection (CM-H2DCFDA, flow cytometry) in α-syn yeast; type: cell-based; settings: 10 μM, HiTox strain
Protocol: The generation of reactive oxygen species (ROS) detected from yeast expressing untagged α-syn using the ROS sensing dye, CM-H2DCFDA (Invitrogen), as previously described (9). Briefly, log phase raffinose cultures of α-syn (non-GFP tagged) were induced with galactose with or without ABI1 for 6 hours. At this time, the dye was added for an additional 30 minutes. Cells were then analyzed using an EasyCyte flow cytometer (Guava Technologies).

TDP-43 = experiment: Yeast growth rescue screen, cells expressing TDP-43; type: cell-based; settings: yeast expressing TDP-43
Excerpt: Thus, rescue was not targeted to a common feature of misfolded protein toxicity, but rather reflected the ability of ABI to target specific pathologies related to α-syn (and to a lesser degree TDP-43).
Yeast strains expressing toxic proteins have been described previously (6, 9, 33, 34) (Table 1). All strains have either single or multiple inserts for galactose-inducible expression. In addition, all stains have either deletions of the Δpdr1::KanMX and Δpdr3::KanMX or Δpdr5::KanMX to reduce efflux of compounds and required compound dosing. Yeast were cultured in complete synthetic media (CSM) and an appropriate dropout (minus HIS or URA) to maintain plasmids if required. For galactose-induction experiments, overnight cultures were grown in CSM/2% glucose to saturation and diluted 1:20 into CSM/2% raffinose for ˜2 generations. Cultures were then diluted into CSM/2% galactose at an optimum OD600 for the experiment (see ‘Growth assays’).
Starting cultures for all dose-response assays were established as described above. All growth assays were carried out in 384 well-format. Source plates were assembled in 96 well plates using multichannel pipettes to dilute rows in 1.6-fold serial dilutions of CSMGal. […] Plates were then read with a Tecan Saphire plate reader at OD600. […]

Cc1cccc(-n2cnc3cc(C(=O)NCc4ccccc4Cl)ccc32)c1 [ABI, N-(2-chlorobenzyl)-1-(m-tolyl)-1H-benzo[d]imidazole-5-carboxamide]
growth inhibition of wild-type cells (WT yeast [1]): inhibited the growth of wild-type cells
viability of cells (WT yeast [2]): retained full viability
nitrosative stress (aSyn^A53T iPS neurons): reduced nitrosative stress
generation of reactive oxygen species (% of ROS-positive cells) (reactive oxygen species): completely abolished; also recorded: reduced the % of ROS-positive cells
efficacy against TDP-43 (restoration of growth) (TDP-43): modest efficacy
